In US20110016579A1, “Gene of transporter selective to mugineic acid-iron complex” (SUNTORY LIMITED, priority 2005, published 2011):

Tests used:
HvYS1 [1] = test: Growth of fet3fet4 yeast (DDY4 strain) expressing HvYS1 on different iron sources; type: cell-based, barley (Hordeum vulgare L.); conditions: 30° C., 4 days
Excerpt: Since DDY4 strain is an yeast that is defective in the divalent iron-absorption system, is unable to grow in an iron-limiting medium (Eide, D. et al., Proc. Natl. Acad. Sci. USA, 1996, vol. 93, pp. 5624-5628) and is unable to grow by taking advantage of mugineic acid-iron (III) complex (Loulergue, C., Gene 1998, vol. 225, pp. 47-57), the yeast having an activity power for selectively absorbing mugineic acid-iron complex can grow on a medium supplemented with mugineic acid-iron(III) complex but the yeast having no above-mentioned activity power cannot grow on the medium.
(§1) Since double mutant fet3fet4 (DDY4 strain) of budding yeast (Saccharomyces cerevisiae) is defective in two genes responsible for absorption of divalent iron (fet3 (a gene for absorbing divalent iron after converting trivalent iron into divalent iron) and fet4 (a gene for absorbing divalent iron as it is)), the yeast can grow neither on an iron-limiting medium (Eide, D. et al., Proc. Natl. Acad. Sci. USA, 1996, vol. 93, pp. 5624-5628) nor by taking advantage of iron complexed with mugineic acid (Loulergue, C., Gene, 1998, vol. 225, pp. 47-57). To investigate the function of HvYS1 in iron transport, the present inventors have studied, using DDY4 strain into which HvYS1 cDNA has been introduced, whether the DDY4 strain in which the gene is expressed is able to grow on a medium containing Fe(III).MA as sole source of iron.
(§2) The following three plasmids were independently introduced into each of DDY4 strain and DY1457 (wild) strain: (1) a plasmid into which HvYS1 cDNA cloned at the NotI site of the expression vector pFL61 (by ATCC Co.) was inserted; (2) a plasmid into which ZmYS1 cDNA (Curie, C. et al., Nature, 2001, vol. 49, pp. 346-349) cloned in the same pFL61 vector was inserted; and (3) the pFL61 vector as a reference into which none of the above-mentioned genes was inserted.
Subsequently, the inventors conducted cultivation tests by mixing three different iron sources, or Fe(III).citrate, Fe(III).MA, and Fe(III).NA, with the medium in order to determine substrate selectivity, if any, of HvYS1. The yeast was cultivated in minimum media—Ura supplemented with 50 μM Fe(III).citrate, 10 μM Fe(III).MA, or 10 μM Fe(II).NA, and 10 μM FeCl2 or FeCl3 as a blank. Also, 10 μM of BPDS that is a potent chelating agent of divalent iron was added to the medium supplemented with 10 μM of Fe(III).MA in order to investigate whether the growth of the yeast is inhibited. Fe(III).MA was prepared according to von Wiren, N. et al. , Biochem. Biophys. Acta, 1998, vol. 1371, pp. 143-155. Nicotinamine was purchased from T. Hasegawa Co., and Fe(II).NA was prepared according to Schaaf, G. et al. , J. Biol. Chem., 2004, vol. 279, pp. 9091-9096. The yeast was cultivated at 30° C. for 4 days. Three solutions of the yeast culture (diluted to optical densities (OD) of 0.2, 0.02 and 0.002, respectively, at a wavelength of 600 nm) were spotted on a plate.

HvYS1 [2] = test: Electrophysiological activity (voltage clamp) in HvYS1-expressing Xenopus oocyte cells; type: cell-based, barley (Hordeum vulgare L.); conditions: final concentration of 50 μM, fixed voltage of −60 mV; compared with other mugineic acid-metal complexes and nicotianamine Fe(II) complex
Excerpt: The activity power for selectively absorbing mugineic acid-iron complex may be also confirmed by observing cell membrane voltage changes using Xenopus oocyte cells. The voltage change of the cell membrane may be obtained by directly measuring the voltage difference between the inside and outside of the cell membrane by, for example, a membrane voltage clamp method, wherein the voltage change of the oocyte cell membrane occurs in accordance with the absorption of mugineic acid-iron complex via the transporter protein expressed in the oocyte cell after adding a solution containing mugineic acid-iron complex to the oocyte cell into which the transporter gene of the invention has been introduced. […]
Subsequently, the inventors have formed mugineic acid complexes of copper, zinc, nickel, manganese, and cobalt as substrates other than Fe(III).MA as in the case of iron in order to determine substrate selectivity, if any, of HvYS1 protein. The oocyte cells in which HvYS1 is expressed were set in a chamber filled with the ND-96 solution, and electrophysiological activity was measured after spraying 10 μL of each 5 mM substrate (final concentration of 50 μM). […] ORIGIN 6.1 software (by Microcal Software Co.) was used for programming and storage of voltage, and analysis of the recorded and stored data. […]
Target sequence in this assay (as listed by the source): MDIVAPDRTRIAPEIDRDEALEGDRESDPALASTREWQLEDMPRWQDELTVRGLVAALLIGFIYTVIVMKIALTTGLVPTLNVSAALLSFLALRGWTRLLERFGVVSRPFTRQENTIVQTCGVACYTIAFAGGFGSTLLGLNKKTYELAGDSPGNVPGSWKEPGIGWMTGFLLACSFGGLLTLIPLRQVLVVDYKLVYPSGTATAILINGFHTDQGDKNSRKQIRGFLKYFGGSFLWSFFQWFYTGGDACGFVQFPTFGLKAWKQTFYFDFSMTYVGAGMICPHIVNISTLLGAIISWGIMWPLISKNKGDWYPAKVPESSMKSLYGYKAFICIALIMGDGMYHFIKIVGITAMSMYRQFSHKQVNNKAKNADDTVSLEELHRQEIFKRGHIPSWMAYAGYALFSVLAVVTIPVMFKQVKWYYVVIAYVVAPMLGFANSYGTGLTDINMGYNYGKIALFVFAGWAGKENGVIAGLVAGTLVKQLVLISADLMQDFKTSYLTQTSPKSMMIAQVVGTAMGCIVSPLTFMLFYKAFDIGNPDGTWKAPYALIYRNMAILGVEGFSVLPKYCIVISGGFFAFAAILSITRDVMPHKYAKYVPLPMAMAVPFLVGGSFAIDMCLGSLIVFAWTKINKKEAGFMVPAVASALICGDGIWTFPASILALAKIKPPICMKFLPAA

ZmYS1 = molecular target: T1, ZmYS1 (Zea mays, UniProt Q9AY27); test: Growth of fet3fet4 yeast (DDY4 strain) expressing ZmYS1 on different iron sources; type: cell-based, maize; conditions: DDY4 strain expressing ZmYS1, 10 μM, FIG. 3
T1 construct: expressed in transfected cells; host or cells: Saccharomyces cerevisiae fet3fet4 double mutant (DDY4 strain), vector pFL61
T1 sequence (Q9AY27 1-682): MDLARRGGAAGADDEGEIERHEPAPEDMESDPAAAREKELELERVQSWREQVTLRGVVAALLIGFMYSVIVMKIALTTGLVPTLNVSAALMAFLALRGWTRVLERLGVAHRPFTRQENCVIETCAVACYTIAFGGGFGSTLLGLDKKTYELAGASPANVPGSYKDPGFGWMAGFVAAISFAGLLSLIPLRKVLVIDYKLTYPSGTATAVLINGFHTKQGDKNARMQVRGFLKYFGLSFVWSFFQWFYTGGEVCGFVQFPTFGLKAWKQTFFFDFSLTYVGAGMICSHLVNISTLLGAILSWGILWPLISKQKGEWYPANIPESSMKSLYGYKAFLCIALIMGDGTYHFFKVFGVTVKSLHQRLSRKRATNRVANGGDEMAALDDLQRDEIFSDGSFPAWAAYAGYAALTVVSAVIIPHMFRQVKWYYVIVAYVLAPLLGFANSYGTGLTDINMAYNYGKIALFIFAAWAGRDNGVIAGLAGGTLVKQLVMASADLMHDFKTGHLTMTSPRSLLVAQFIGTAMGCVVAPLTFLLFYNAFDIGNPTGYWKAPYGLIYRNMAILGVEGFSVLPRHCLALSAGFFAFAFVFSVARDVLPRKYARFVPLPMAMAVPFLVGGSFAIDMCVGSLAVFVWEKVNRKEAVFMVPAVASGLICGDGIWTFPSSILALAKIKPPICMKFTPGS
Excerpt: as §1
as §2, with “inserted. […]” for “inserted.”

[Cl][Fe][Cl] [FeCl2]
growth of DDY4 strain expressing HvYS1 with the substance as sole iron source (HvYS1 [1]; 10 μM in minimum media -Ura): did not grow

[Cl][Fe]([Cl])[Cl] [FeCl3]
growth of DDY4 strain expressing HvYS1 with the substance as sole iron source (HvYS1 [1]; 10 μM in minimum media -Ura): did not grow

citric acid-iron complex (iron-ammonium citrate complex) [Fe(III).citrate]
growth of DDY4 strain expressing HvYS1 with the substance as sole iron source (HvYS1 [1]; 50 μM in minimum media -Ura): did not grow

mugineic acid-iron(III) complex [Fe(III).MA]
voltage change in HvYS1-expressing oocyte cells (HvYS1 [2]): overwhelmingly strong voltage change | growth of DDY4 strain expressing HvYS1 in the presence of BPDS (HvYS1 [1]; 10 μM Fe(III).MA plus 10 μM BPDS (Fe(II) chelating agent)): grew | growth of DDY4 strain expressing HvYS1 with the substance as sole iron source (HvYS1 [1]; 10 μM in minimum media -Ura): grew at the same level as DDY4 strain expressing ZmYS1 | transport of the iron complex by ZmYS1 (ZmYS1): transports

nicotianamine-iron complex [Fe(II).NA]
growth of DDY4 strain expressing HvYS1 with the substance as sole iron source (HvYS1 [1]; 10 μM in minimum media -Ura): does not absorb Fe(II).NA, or growth was strongly inhibited | transport of the iron complex by ZmYS1 (ZmYS1): transports
